This is an account of results in ChEMBL document CHEMBL3616439, “Synthesis, α-glucosidase inhibitory and molecular docking studies of prenylated and geranylated flavones, isoflavones and chalcones” (Bioorg Med Chem Lett, 2015).

Assay [1] can be described thus: Inhibition of baker's yeast alpha-glucosidase using p-nitrophenyl-alpha-D-glucopyranoside as substrate after 30 mins by spectrophotometric analysis. On the set-up: species or system Saccharomyces cerevisiae.
Assay [2] relates to Saccharomyces cerevisiae. Nature of the assay: Competitive inhibition of baker's yeast alpha-glucosidase using p-nitrophenyl-alpha-D-glucopyranoside as substrate at 1 to 2 uM preincubated for 30 mins followed by substrate addition by Lineweaver-Burk plot analysis.
For assay [3], the system named is Saccharomyces cerevisiae. Nature of the assay: Potency index, ratio of acarbose IC50 to compound IC50 for baker's yeast alpha-glucosidase.
The test system of assay [4] is Saccharomyces cerevisiae. The assay is described as follows: Mixed-type inhibition of baker's yeast alpha-glucosidase using p-nitrophenyl-alpha-D-glucopyranoside as substrate at 4 to 6 uM preincubated for 30 mins followed by substrate addition by Lineweaver-Burk plot analysis.
Assay [5] relates to Saccharomyces cerevisiae. Nature of the assay: Competitive inhibition of baker's yeast alpha-glucosidase using p-nitrophenyl-alpha-D-glucopyranoside as substrate at 1.5 to 2 uM preincubated for 30 mins followed by substrate addition by Lineweaver-Burk plot analysis.

Active and inactive are the calls of the source. No cut-off for these calls is given here.

On to `C[C@H]1O[C@H](O[C@H]2[C@H](O)[C@@H](O)[C@@H](O[C@H]3[C@H](O)[C@@H](O)C(O)O[C@@H]3CO)O[C@@H]2CO)[C@H](O)[C@@H](O)[C@@H]1N[C@H]1C=C(CO)[C@@H](O)[C@H](O)[C@H]1O` (stereo partly drawn) [ACARBOSE], for which, in assay [1], 51.3 µM corresponded to half-maximal inhibition (IC50).
On the same count and under the same terms, for `CC(C)=CCC/C(C)=C/Cc1cc(C(=O)/C=C/c2ccc(O)cc2)c(O)cc1O` the value was 16.3 µM.
In the case of `CC(C)=CCC/C(C)=C/Cc1cc(C(=O)/C=C/c2ccc(O)cc2)c(O)c(C/C=C(\C)CCC=C(C)C)c1O`, the inhibition entry in assay [2] is “Active”. Moreover, the IC50 (usually the concentration needed to halve the response being measured) in assay [1] came to 0.9 µM. In assay [3], the Ratio IC50 worked out at 50.
With `O=C(/C=C/c1ccc(O)cc1)c1ccc(O)cc1O` [ISOLIQUIRITIGENIN], the concentration for half-maximal inhibition (IC50) in assay [1] is greater than 100 µM.
Still for that read-out and setting: the figure for `COc1ccc(/C=C/C(=O)c2cc(CC=C(C)C)c(OC)cc2OC)cc1` is greater than 100 µM; for `CC(C)=CCC/C(C)=C/Cc1c(O)c(CC=C(C)C)cc(C(=O)/C=C/c2ccc(O)cc2)c1O` it is 11.5 µM.
Take `CC(C)=CCC/C(C)=C/Cc1c(O)cc(O)c2c(=O)c(-c3ccc(O)cc3)coc12`: the inhibition entry in assay [4] was “Active”. In assay [1], this molecule registered a concentration for half-maximal inhibition (IC50) of 6.26 µM.
Consider `CC(C)=CCC/C(C)=C/Cc1cc(C(=O)/C=C/c2ccc(O)cc2)c(O)c(CC=C(C)C)c1O`, for which the IC50 in assay [1] was determined as 9 µM.
On the same count and under the same terms, the figure for `COc1ccc(-c2coc3c(C/C=C(\C)CCC=C(C)C)c(OC)cc(O)c3c2=O)cc1` is greater than 100 µM; for `CC(C)=CCc1cc(C(=O)/C=C/c2ccc(O)cc2)c(O)c(CC=C(C)C)c1O` [MEDICAGENIN] it is 6.9 µM.
Same read-out and setting: the figure for `COc1ccc(-c2coc3c(CC=C(C)C)c(OC)cc(OC)c3c2=O)cc1` is greater than 100 µM; for `O=c1c(-c2ccc(O)cc2)coc2cc(O)cc(O)c12` [GENISTEIN] it is 50.1 µM; for `O=c1c(O)c(-c2ccc(O)c(O)c2)oc2cc(O)cc(O)c12` [QUERCETIN] it is 11 µM.
On the same count and under the same terms, the figure for `CC(C)=CCc1c(O)cc(O)c2c(=O)c(-c3ccc(O)cc3)coc12` is greater than 100 µM.
Molecule `COc1ccc(-c2coc3c(CC=C(C)C)c(OC)cc(O)c3c2=O)cc1` showed an IC50 in assay [1] greater than 100 µM.
For the molecule `COc1ccc(-c2coc3c(C/C=C(\C)CCC=C(C)C)c(OC)cc(OC)c3c2=O)cc1`, the IC50 in assay [1] was greater than 100 µM.
Take `CC(C)=CCC/C(C)=C/Cc1c(O)cc(O)c2c(=O)c(O)c(-c3ccc(O)c(O)c3)oc12`: the inhibition result in assay [5] is “Active”. Moreover, the IC50 in assay [1] is 1.15 µM.
`CC(C)=CCc1c(O)cc(O)c2c(=O)c(O)c(-c3ccc(O)c(O)c3)oc12` displayed a concentration for half-maximal inhibition (IC50) in assay [1] of 4.38 µM.
On the same count and under the same terms, the figure for `CC(C)=CCc1cc(C(=O)/C=C/c2ccc(O)cc2)c(O)cc1O` [BROUSSOCHALCONE B] is 5.3 µM.
